In paper PMC11161644, “An effective and rapidly degradable disinfectant from disinfection byproducts” (Nature Communications, 2024):
Values joined by “and” are separate entries in the source; they are usually repeats but may differ in a detail not shown here. Identical values can stand only once.

Columns and labels:
aquatic invertebrates = system: aquatic invertebrates; parameters: method as in earlier work; details: USEPA; cited from earlier work
rat = details: oral; cited from earlier work
P. dumerilii embryos = assay: Developmental toxicity (EC50) of OH-DCQ and 2,6-DCQ to P. dumerilii embryos; assay type: in vivo, Platynereis dumerilii
Description: The third aliquot was subjected to the developmental toxicity assay with P. dumerilii embryos. The aliquot was dissolved in 10 mL of seawater and adjusted to pH 8.2. The embryos at 12-h postfertilization were exposed to different levels of OH-DCQ for 12 h. By 24-h postfertilization, normally and abnormally developed embryos were counted using an inverted stereomicroscope. Based on the percentage of normally developed embryos, an exposure−response curve was generated. The median effective concentration (EC50) was determined using SigmaPlot 12 software. The developmental toxicity of 2,6-DCQ was also evaluated for comparison. The toxicity bioassay was conducted in duplicate.

[1] = UPLC/ESI-tqMS time profile of 2,6-DCQ and its degradation products in simulated seawater (pH 8.2, darkness); OH-DCQ formation; details: for Concentration: 2,6-DCQ degradation / OH-DCQ formation; for Peak area: 2,6-DCQ degradation, pH 8.2, darkness
Description: A Waters UPLC system coupled with ESI-tqMS was used to characterize the degradation products of 2,6-DCQ. The UPLC separation was performed using an HSS T3 column (100 × 2.1 mm, 1.8 μm particle size, Waters) with a column temperature of 35 °C. A gradient eluent of methanol–water was applied at a flow rate of 0.4 mL min^−1. The gradient program was set as follows: methanol/water (v/v) ratio changed linearly from 5/95 to 90/10 in the first 8 min and then returned to 5/95 during 8.0‒8.1 min, which was held for 2.9 min for re-equilibration. The ESI-tqMS was set as follows: ESI negative mode, capillary voltage 2.8 kV, cone voltage 10–50 V (depending on analytes), cone gas flow 50 L h^−1, source temperature 120 °C, desolvation temperature 400 °C, desolvation gas flow 800 L h^−1, collision energy 15–50 eV (depending on analytes), collision gas (argon) flow 0.25 mL min^−1, and mass resolution 15 (1-unit resolution).
The degradation of 2,6-DCQ in seawater was simulated by adding 10 mg L^−1 2,6-DCQ to 50 mL ultrapure water, which was adjusted to pH 8.2 with 5 mM sodium carbonate (to simulate the alkalinity in seawater and also to be compatible with the subsequent UPLC/ESI-tqMS analysis). The sample was kept in darkness for 0–24 h, during which the pH of the sample was maintained at 8.1 ± 0.1. At a designated reaction time, 7.5 μL of the sample was injected into the UPLC system. For a nonhalogenated degradation product, the selected ion recording (SIR) mode with a dwell time of 0.05 s was adopted to obtain the retention time. For halogenated degradation products, the multiple reaction monitoring mode with a dwell time of 0.05 s was used to obtain the retention time and the isotopic abundance ratio. To investigate the time-dependent profile of 2,6-DCQ and its degradation products, the peak area of each compound was determined using the SIR mode in the UPLC/ESI-tqMS analysis.
The second aliquot was subjected to analysis of total organic halogen to quantify the collected OH-DCQ. The determination of total organic halogen was based on Standard Method 5320B[52], with modifications of using off-line ion chromatography for halide detection. Briefly, the aliquot was dissolved in 100 mL ultrapure water and acidified to pH 2 with concentrated nitric acid[52] prior to adsorption onto pre-packed activated carbon columns (Mitsubishi). A three-channel adsorption module (TXA03C, Mitsubishi Chemical Analytech) was used for adsorption. An AQF-100 automatic quick furnace (Mitsubishi Chemical Analytech) was used for pyrolysis. During the pyrolysis process, the chlorine atoms in OH-DCQ were converted to chloride. The chloride ion concentration was determined using an ICS-3000 ion chromatography system (Dionex). 2,6-DCQ was used as a standard compound for measuring total organic halogen to determine the recovery of the analysis. The total organic halogen analysis was conducted in duplicate.

In the case of `Cc1cc(O)cc(C)c1Cl` [PCMX, para-chloro-meta-xylenol, reference compound], the “Toxicity rating to aquatic invertebrates” value (aquatic invertebrates) is given as “moderately toxic” and the LD50 (rat) is given as 3830 mg/kg.
For `O=C1C=C(Cl)C(=O)C(Cl)=C1` [2,6-DCQ, 2,6-dichlorobenzoquinone], the Normal development (P. dumerilii embryos; 2,6-DCQ concentration 0.2 mg L-1) was 80.7017% and 79.2079%, the Normal development (P. dumerilii embryos; 2,6-DCQ concentration 0.3 mg L-1) was 76.7442% and 82.4428% and the Normal development (P. dumerilii embryos; 2,6-DCQ concentration 0.4 mg L-1) was 80% and 80.822%. The Normal development (P. dumerilii embryos; 2,6-DCQ concentration 0.5 mg L-1) was 62.0155% and 62.3077%, the Normal development (P. dumerilii embryos; 2,6-DCQ concentration 0.6 mg L-1) was 42.1875% and 37.2727% and the Normal development (P. dumerilii embryos; 2,6-DCQ concentration 0.75 mg L-1) was 16.2963% and 20.7921%. The Normal development (P. dumerilii embryos; 2,6-DCQ concentration 1 mg L-1) was 7.407% and 6.667%, the “Developmental toxicity relative to OH-DCQ (times higher)” value (P. dumerilii embryos; P. dumerilii embryos) was 149 times and the Concentration ([1]; degradation time 0 h) was 10000 ng/mL. For the same compound, the Concentration ([1]; degradation time 0.25 h) was 9325 ng/mL, the Concentration ([1]; degradation time 0.5 h) was 7750.7 ng/mL and the Concentration ([1]; degradation time 0.75 h) was 7678 ng/mL. For the same compound, the Concentration ([1]; degradation time 1 h) was 6527 ng/mL, the Concentration ([1]; degradation time 1.25 h) was 5831 ng/mL and the Concentration ([1]; degradation time 1.5 h) was 4783 ng/mL. It also gave a Concentration ([1]; degradation time 1.75 h) of 4325 ng/mL, a Concentration ([1]; degradation time 2 h) of 3926 ng/mL and a Concentration ([1]; degradation time 2.25 h) of 3481 ng/mL. For the same compound, the Concentration ([1]; degradation time 2.5 h) was 3034.4 ng/mL, the Concentration ([1]; degradation time 2.75 h) was 2761 ng/mL and the Concentration ([1]; degradation time 3 h) was 2333 ng/mL. For the same compound, the Concentration ([1]; degradation time 3.25 h) was 2120 ng/mL, the Concentration ([1]; degradation time 3.5 h) was 1754 ng/mL and the Concentration ([1]; degradation time 3.75 h) was 1608 ng/mL. The Concentration ([1]; degradation time 4 h) was 1408 ng/mL, the Concentration ([1]; degradation time 4.5 h) was 986.7 ng/mL and the Concentration ([1]; degradation time 5 h) was 705.1 ng/mL. It also gave a Concentration ([1]; degradation time 5.5 h) of 583.3 ng/mL, a Concentration ([1]; degradation time 6 h) of 424 ng/mL and a Concentration ([1]; degradation time 6.5 h) of 287.5 ng/mL. It also gave a Concentration ([1]; degradation time 7 h) of 231.6 ng/mL, a Concentration ([1]; degradation time 7.5 h) of 179.6 ng/mL and a Concentration ([1]; degradation time 8 h) of 153.3 ng/mL. For the same compound, the Concentration ([1]; degradation time 10 h) was 54.98 ng/mL, the Concentration ([1]; degradation time 12 h) was 24.77 ng/mL and the Concentration ([1]; degradation time 14 h) was 14.36 ng/mL. The Concentration ([1]; degradation time 16 h) was 0 ng/mL, the Concentration ([1]; degradation time 18 h) was 0 ng/mL and the Concentration ([1]; degradation time 20 h) was 0 ng/mL. The Concentration ([1]; degradation time 24 h) was 0 ng/mL, the Peak area ([1]; 0 h) was 56527.8 and the Peak area ([1]; 0.25 h) was 52714.2. It also gave a Peak area ([1]; 0.5 h) of 43813, a Peak area ([1]; 0.75 h) of 43401.4 and a Peak area ([1]; 1 h) of 36894.2. It also gave a Peak area ([1]; 1.25 h) of 32960.2, a Peak area ([1]; 1.5 h) of 27035.4 and a Peak area ([1]; 1.75 h) of 24446.8. The Peak area ([1]; 2 h) was 22195.6, the Peak area ([1]; 2.25 h) was 19679.8 and the Peak area ([1]; 2.5 h) was 17152.8. For the same compound, the Peak area ([1]; 2.75 h) was 15608.6, the Peak area ([1]; 3 h) was 13185.2 and the Peak area ([1]; 3.25 h) was 11984. The Peak area ([1]; 3.5 h) was 9914.8, the Peak area ([1]; 3.75 h) was 9088.8 and the Peak area ([1]; 4 h) was 7959. It also gave a Peak area ([1]; 4.5 h) of 5577.6, a Peak area ([1]; 5 h) of 3985.8 and a Peak area ([1]; 5.5 h) of 3297. It also gave a Peak area ([1]; 6 h) of 2396.8, a Peak area ([1]; 6.5 h) of 1625.4 and a Peak area ([1]; 7 h) of 1309. It also gave a Peak area ([1]; 7.5 h) of 1015, a Peak area ([1]; 8 h) of 866.6 and a Peak area ([1]; 10 h) of 310.8. The Peak area ([1]; 12 h) was 140, the Peak area ([1]; 14 h) was 81.2 and the Peak area ([1]; 16 h) was 0. The Peak area ([1]; 18 h) was 0, the Peak area ([1]; 20 h) was 0 and the Peak area ([1]; 24 h) was 0. The LD10 (rat) was 500 mg/kg.
